One compound from PubChem BioAssay AID651927 (Vanderbilt Specialized Chemistry Center, 2012) can be followed below.

This assay deals with Muscarinic acetylcholine receptor M5 (Homo sapiens) (UniProt P08912). Description: ACh response potentiation at M5 – CHO cells, human M5 (AID 651927). To be noted: CHO-K1 hM5, Fluo-4 calcium flux, ACh EC20 potentiation. On the technique in general: Calcium assays in cells follow changes in intracellular calcium, usually with a dye or a luminescent sensor.
Sequence of Muscarinic acetylcholine receptor M5 (Homo sapiens) (P08912 whole entry, looked up): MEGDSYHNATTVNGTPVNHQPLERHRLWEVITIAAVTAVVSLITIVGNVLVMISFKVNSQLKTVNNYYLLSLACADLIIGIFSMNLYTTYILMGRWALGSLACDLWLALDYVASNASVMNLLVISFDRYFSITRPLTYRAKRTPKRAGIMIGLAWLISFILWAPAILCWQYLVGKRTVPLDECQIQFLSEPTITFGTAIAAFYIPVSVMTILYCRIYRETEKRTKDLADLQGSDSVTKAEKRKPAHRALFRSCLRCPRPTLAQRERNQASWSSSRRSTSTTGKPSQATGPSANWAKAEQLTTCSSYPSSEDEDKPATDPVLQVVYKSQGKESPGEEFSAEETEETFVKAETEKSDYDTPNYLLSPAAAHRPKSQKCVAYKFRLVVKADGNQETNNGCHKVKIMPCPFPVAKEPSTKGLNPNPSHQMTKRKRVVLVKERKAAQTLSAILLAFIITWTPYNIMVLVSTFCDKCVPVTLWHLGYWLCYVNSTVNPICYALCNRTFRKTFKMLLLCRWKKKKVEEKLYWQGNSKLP

As to `O=C1C(=O)N(CCOc2ccccc2)c2ccc(OC(F)(F)F)cc21`, the EC50 (as a rule, the midpoint of the concentration-response curve) was 589 nM.
